{"source": "patent US20050129764A1", "about": "“Osmotic device containing licofelone” (priority 2003, published 2005)", "origin": "cited, not measured here", "key": {"[1]": {"conditions": "200 mg dose administered twice daily"}, "[2]": {"conditions": "single dose (800-3,200) mg, volunteers"}, "[3]": {"tested_on": "osteoarthritis of the knee", "conditions": "phase III"}}}
{"smiles": "CC1(C)Cc2c(-c3ccccc3)c(-c3ccc(Cl)cc3)c(CC(=O)O)n2C1", "note": "[licofelone]", "values": [{"measurement": "elimination half-life (T1/2β)", "setting": "[1]", "value": "8.7 to 11.1", "unit": "h"}, {"measurement": "peak plasma licofelone concentrations", "setting": "[1]", "value": "1650 to 1750", "unit": "ng/mL"}, {"measurement": "time post-dose at which peak plasma concentrations were reached", "setting": "[1]", "value": "0.74 to 4", "unit": "h"}, {"measurement": "tolerability", "setting": "[2]", "value": "generally well tolerated"}, {"measurement": "improvement in efficacy parameters", "setting": "[3]; licofelone 400 mg/day bid", "value": "greatest improvement in efficacy parameters"}, {"measurement": "efficacy in long-term treatment of osteoarthritis of the knee vs naproxen", "setting": "[3]; n=704, licofelone 200 and 400 mg/day bid, naproxen 1000 mg/day bid", "value": "at least as effective as naproxen"}, {"measurement": "activity in animal experiments", "value": "antiphlogistic, analgesic, antipyretic, antiasthmatic and antiaggregative activity"}, {"measurement": "gastrointestinal damage at active dosage", "setting": "animal experiments", "value": "no gastrointestinal damage"}]}
